# Patent US11278586B2, “Highly absorbable oral tyrosine formulation” (Kao Corporation, priority 2017, dated 2022)
# Where a SMILES comes first, the peptide text is derived from it.
# Experiments:
# [1] = Bioabsorbability of tyrosine after oral administration to mice (plasma amino acids by LC-MS/MS); type: in vivo, C57B6J Mice; settings: oral 0.55 mmol/kg body weight; for administered dipeptide detected in the plasma: at any time after administration (15-60 min), results not shown
# Procedure: C57B6J Mice (CLEA Japan, Inc., 8 weeks old, male) were acclimatized for 1 week, and then the mice were divided into 4 groups with similar body weights (N=4 for each group). Each of amino acids dissolved in water was orally administered to the mice by sonde at the following dose in Table 1. Venous blood was collected from the fundus using a heparin-treated micro hematocrit tube (VITREX) under isoflurane anesthesia before administration and 15, 30, 45, and 60 minutes after administration. These were centrifuged (8,000×g, 10 minutes, 4° C.) to obtain plasma. Thereafter, a 15% by mass of aqueous sulfosalicylic acid solution which was three times amount of the plasma was added thereto, mixed, and centrifuged (8,000×g, 10 minutes, 4° C.) to remove the protein, and the obtained plasma was used as a sample for analysis. Quantification of amino acids in the sample for analysis was performed using LC-MS/MS. Infinity 1290 (Agilent) was used for liquid chromatography, and 3200 QTRAP (AB Sciex) was used for mass spectrometry.
# A tyrosine administration group and a tyrosine and glycine (each equimolar amount) mixed administration group were set as controls for the glycyltyrosine administration group. An alanyltyrosine administration group was also set for effect comparison.
# [2] = Solubility in water; type: physicochemical; settings: dose of 0.55 mmol/kg body weight, an amount equivalent to 10 times the solubility of tyrosine
# Procedure: Glycyltyrosine and alanyltyrosine are known to have high solubility as compared to tyrosine, and the solubility thereof in water at 20° C. is about 75 times and about 36 times that of tyrosine, respectively (Fust et al., (2001) J. Nutr.). […] In spite of this, an excellent action of improving bioabsorbability of tyrosine was confirmed only in the oral administration/ingestion of glycyltyrosine. Therefore, the action is considered not due to the improvement in solubility, but an effect unique to glycyltyrosine.
# [3] = water at 20° C.; Fust et al. (2001) J. Nutr.; cited from earlier work
"blood tyrosine concentration compared with the tyrosine administration group ([1]; 15 minutes after administration, Dunnett p<0.01, FIG. 1)",maximum blood concentration (Cmax) of tyrosine compared to the tyrosine administration group ([1]; FIG. 2),"blood glycine concentration versus the tyrosine and glycine mixed administration group ([1]; at any time after administration, FIG. 1)","area under the increased blood concentration-time curve (iAUC) of tyrosine compared to the tyrosine administration group ([1]; until 60 minutes after administration, FIG. 2)",Compound,administered dipeptide detected in the plasma [1],dissolution of the administration sample in water [2],solubility in water relative to that of tyrosine [3]
,,,,"C[C@H](N)C(=O)N[C@@H](Cc1ccc(O)cc1)C(=O)O [alanyltyrosine, L-Alanyl-L-tyrosine, reference compound] (H-Ala-Tyr-OH)",not detected,completely dissolved,about 36 times
significantly higher,significantly high values,no significant difference,significantly high values,"NCC(=O)N[C@@H](Cc1ccc(O)cc1)C(=O)O [glycyltyrosine, Glycyl-L-tyrosine dihydrate] (H-Gly-Tyr-OH)",not detected,completely dissolved,about 75 times
